Literature values in patent publication US20250195486A1 (Closed Loop Medicine Ltd., priority 2023, published 2025).
Entries after “also recorded” stand apart in the source; their conditions may differ. Read-outs that look alike come from different tables or passages of the source.

Key:
P-gp = P-gp (Homo sapiens, UniProt P08183)
[1] = Salazar et al. (2012)
[2] = population mean; Song et al. (2014), Phases I and II
[3] = Yin et al. (2014)
[4] = Niebecker et al. (2015)
patients with NVAF [5] = conditions: patient with normal renal function
patients with NVAF [6] = conditions: 12 weeks
[7] = not given; remark: listed apart in the source
patients with AF = conditions: atrial fibrillation
[8] = population mean, Phases I and II
[9] = population mean, Phases I, II and III
[10] = population mean, Phases I and III
[11] = normally distributed, mean 0, Krekels et al. (2016) model
[12] = population mean, Krekels et al. (2016), Phases I and III

Sequence of P-gp (P08183 whole entry): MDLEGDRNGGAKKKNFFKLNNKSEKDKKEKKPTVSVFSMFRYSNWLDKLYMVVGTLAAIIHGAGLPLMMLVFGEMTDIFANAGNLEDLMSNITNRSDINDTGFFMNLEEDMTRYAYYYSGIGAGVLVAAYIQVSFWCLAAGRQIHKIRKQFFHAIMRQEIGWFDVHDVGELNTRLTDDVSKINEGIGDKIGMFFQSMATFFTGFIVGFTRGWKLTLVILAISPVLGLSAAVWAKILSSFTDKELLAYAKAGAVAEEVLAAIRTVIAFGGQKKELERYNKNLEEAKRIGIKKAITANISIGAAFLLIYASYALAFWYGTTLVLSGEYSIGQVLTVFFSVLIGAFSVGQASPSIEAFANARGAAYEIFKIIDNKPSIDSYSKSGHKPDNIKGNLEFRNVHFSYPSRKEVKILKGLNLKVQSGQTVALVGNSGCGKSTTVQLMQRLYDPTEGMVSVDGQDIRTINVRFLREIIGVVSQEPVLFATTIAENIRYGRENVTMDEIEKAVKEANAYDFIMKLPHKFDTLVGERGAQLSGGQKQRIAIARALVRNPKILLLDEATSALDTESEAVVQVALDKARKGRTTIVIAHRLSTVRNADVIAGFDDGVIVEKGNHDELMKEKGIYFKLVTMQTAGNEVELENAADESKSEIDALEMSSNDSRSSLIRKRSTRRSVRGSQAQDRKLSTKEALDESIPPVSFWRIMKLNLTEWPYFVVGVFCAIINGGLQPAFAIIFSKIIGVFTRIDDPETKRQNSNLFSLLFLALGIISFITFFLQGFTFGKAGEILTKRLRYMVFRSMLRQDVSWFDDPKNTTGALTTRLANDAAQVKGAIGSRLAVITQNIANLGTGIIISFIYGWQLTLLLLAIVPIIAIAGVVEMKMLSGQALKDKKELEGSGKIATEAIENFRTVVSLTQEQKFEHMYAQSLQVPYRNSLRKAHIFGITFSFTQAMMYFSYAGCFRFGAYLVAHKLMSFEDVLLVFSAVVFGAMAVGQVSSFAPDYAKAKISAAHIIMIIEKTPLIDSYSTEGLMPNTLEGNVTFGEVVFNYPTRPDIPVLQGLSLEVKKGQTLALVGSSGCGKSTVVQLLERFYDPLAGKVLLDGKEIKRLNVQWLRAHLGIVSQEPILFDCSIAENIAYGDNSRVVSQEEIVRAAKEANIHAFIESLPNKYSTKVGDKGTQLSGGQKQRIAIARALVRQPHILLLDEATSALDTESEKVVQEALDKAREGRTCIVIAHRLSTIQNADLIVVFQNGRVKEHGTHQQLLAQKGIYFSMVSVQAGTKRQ

CN1CCc2nc(C(=O)N[C@@H]3C[C@@H](C(=O)N(C)C)CC[C@@H]3NC(=O)C(=O)Nc3ccc(Cl)cn3)sc2C1 [edoxaban]
Metabolism (extent) (by CES1, CYP3A4 and glucuronidation): < 30% | time of peak plasma concentrations (following oral administration): 1 to 2 h | time of peak levels (immediate-release doses, taken without food): 1 to 2 h | time of peak levels with food (immediate-release doses, with food vs without food): an hour later | Renal clearance as share of total body clearance (in vivo): ~50% | accumulation upon repeat dosing (in vivo): minimal accumulation | effect of food on rate of absorption (in vivo): decreases the rate of absorption | effect of food on total exposure (in vivo): does not affect | increase of total systemic exposure (AUC∞) (moderate or severe renal impairment vs normal renal function): almost two-fold | bioavailability (oral): approximately 62% | terminal half-life (oral administration): 10 to 14 h | dose linearity of pharmacokinetics (over the therapeutic range of doses): linear | unchanged drug found in the faeces (partly due to biliary elimination): 30-50% | P-gp substrate status (P-gp): substrate of P-gp | Significant covariates: Body weight (PK parameters influenced) [1]: Vc/F | Significant covariates: CRCL (PK parameters influenced) [1]: CL/F | Significant covariates: Food (PK parameters influenced) [1]: Ka | Significant covariates: P-gp inhibition (PK parameters influenced) [1]: CL/F, Ka, F | Significant covariates: Patient status (PK parameters influenced) [1]: Vc/F | CL/F [1, 8]: 36 L/h | F [1, 8]: 1 | Ka [1, 8]: 5.87 h⁻¹ | Lag time [1, 8]: 0.42 h | Q/F [1, 8]: 6.42 L/h | Vc/F [1, 8]: 244 L | Vp/F [1, 8]: 90.3 L | CL/F [2]: 32.1 L/h | Ka [2]: 3.54 h⁻¹ | Lag time [2]: 0.39 h | Q/F [2]: 8.85 L/h | Vc/F [2]: 214 L | Vp/F [2]: 134 L | Significant covariates: Age (PK parameters influenced) [3]: CL/F, Ka | Significant covariates: Body weight (PK parameters influenced) [3]: CL/F, Vc/F | Significant covariates: CRCL (PK parameters influenced) [3]: CL/F | Significant covariates: P-gp inhibition (PK parameters influenced) [3]: Vc/F, Ka, F | CL/F [3, 9]: 11.4 L/h | F [3, 9]: 0.58 | Ka [3, 9]: 1.08 h⁻¹ | Lag time [3, 9]: 0.25 h | Q/F [3, 9]: 2.73 L/h | Vc/F [3, 9]: 151 L | Vp/F [3, 9]: 42.9 L | Significant covariates: Body weight (PK parameters influenced) [4]: CLNR/F, Q/F,; also recorded: Vc/F, Vp/F | Significant covariates: CRCL (PK parameters influenced) [4]: CL/F | Significant covariates: P-gp inhibition (PK parameters influenced) [4]: CL/F, F | Significant covariates: Race (PK parameters influenced) [4]: Vc/F | CL/F (CLNR/F) ([4]; non-renal clearance, population mean, Phases I and III): 15.5 L/h | Ka [4, 10]: 3.35 h⁻¹ | Lag time [4, 10]: 0.25 h | Q/F [4, 10]: 5.92 L/h | Vc/F [4, 10]: 209 L | Vp/F [4, 10]: 92.3 L | trough edoxaban level required to reduce the risk of a major bleeding event below 2% (patients with NVAF [5]): < 30 ng/mL | trough edoxaban level required to reduce the risk of a major bleeding event below […] (patients with NVAF [5]): < 40 ng/mL | risk of bleeding, 30 mg twice-daily vs 60 mg once-daily (patients with NVAF [6]): greater | Significant covariates: CRCL (PK parameters influenced) ([7]; Krekels et al. (2016)): CL/F | CL/F (CLNR/F) ([7]; non-renal clearance, population mean, Krekels et al. (2016), Phases I and III): 13.8 L/h | variance of ηCL/F (between-subject variability) [7, 11]: 0.0185 | variance of ηQ/F (between-subject variability) [7, 11]: 0.2285 | variance of ηVc/F (between-subject variability) [7, 11]: 0.04623 | variance of ηVp/F (between-subject variability) [7, 11]: 0.2285 | Ka [7, 12]: 2.16 h⁻¹ | Lag time [7, 12]: 0.25 h | Q/F [7, 12]: 5.75 L/h | Vc/F [7, 12]: 194 L | Vp/F [7, 12]: 88.6 L

CC(=O)CC(c1ccccc1)c1c(O)c2ccccc2oc1=O (centres unmarked) [warfarin]
reduction of stroke (patients with AF): about 60%
